Earlier results on one compound are cited in PubChem BioAssay AID1259409 (Chemical Carcinogenesis Research Information System (CCRIS), 2018).

In this data set the test system is rodent chemically induced tumor inhibition, incidence and multiplicity. Briefly: CCRIS tumor inhibitor studies. As to conditions: Route [Inhibitor]: ORAL, Species: RAT, Strain/Sex: SPRAGUE-DAWLEY/FEMALE.

As for `COc1ccc(C[C@H]2COC(=O)[C@@H]2Cc2ccc(O[C@@H]3O[C@H](CO)[C@@H](O)[C@H](O)[C@H]3O)c(OC)c2)cc1OC`, the “tumour outcome (control, treated, inhibition, significance)” value is 12/20 (60%), 10/19 (53%), 12%, not significant (Carcinogen: 2-AMINO-1-METHYL-6-PHENYL-1H-IMIDAZO[4,5-B]PYRID INE, 105650-23-5, Dose [Inhibitor]: 0, 0.02% IN THE DIET FOR 8 WK BEGINNING 3 D POST LAST CARCINOGEN DOSE (STUDY DURATION: 48 WK), Target Tissue: Type of Lesion: MAMMARY GLAND: ADENOCARCINOMA, Dose [Carcinogen]: 100 MG/KG BW 1/WK FOR 8 WK BEGINNING AT 6 WK OF AGE, Promoter: NONE USED); 2/20 (10%), 2/19 (11%), -10%, not significant (Carcinogen: 2-AMINO-1-METHYL-6-PHENYL-1H-IMIDAZO[4,5-B]PYRID INE, 105650-23-5, Dose [Inhibitor]: 0, 0.02% IN THE DIET FOR 8 WK BEGINNING 3 D POST LAST CARCINOGEN DOSE (STUDY DURATION: 48 WK), Target Tissue: Type of Lesion: MAMMARY GLAND: FIBROADENOMA, Dose [Carcinogen]: 100 MG/KG BW 1/WK FOR 8 WK BEGINNING AT 6 WK OF AGE, Promoter: NONE USED); 12/20 (60%), 11/20 (55%), 8%, not significant (Carcinogen: 2-AMINO-1-METHYL-6-PHENYL-1H-IMIDAZO[4,5-B]PYRID INE, 105650-23-5, Dose [Inhibitor]: 0, 0.02% IN THE DIET FOR 8 WK BEGINNING 3 D PRIOR TO FIRST CARCINOGEN DOSE (STUDY DURATION: 48 WK), Target Tissue: Type of Lesion: MAMMARY GLAND: ADENOCARCINOMA, Dose [Carcinogen]: 100 MG/KG BW 1/WK FOR 8 WK CONCURRENT WITH INHIBITOR, Promoter: NONE USED); 2/20 (10%), 3/20 (15%), -50%, not significant (Carcinogen: 2-AMINO-1-METHYL-6-PHENYL-1H-IMIDAZO[4,5-B]PYRID INE, 105650-23-5, Dose [Inhibitor]: 0, 0.02% IN THE DIET FOR 8 WK BEGINNING 3 D PRIOR TO FIRST CARCINOGEN DOSE (STUDY DURATION: 48 WK), Target Tissue: Type of Lesion: MAMMARY GLAND: FIBROADENOMA, Dose [Carcinogen]: 100 MG/KG BW 1/WK FOR 8 WK CONCURRENT WITH INHIBITOR, Promoter: NONE USED); 12/20 (60%), 11/20 (55%), 8%, not significant (Carcinogen: 2-AMINO-1-METHYL-6-PHENYL-1H-IMIDAZO[4,5-B]PYRID INE, 105650-23-5, Dose [Inhibitor]: 0, 0.2% IN THE DIET FOR 8 WK BEGINNING 3 D POST LAST CARCINOGEN DOSE (STUDY DURATION: 48 WK), Target Tissue: Type of Lesion: MAMMARY GLAND: ADENOCARCINOMA, Dose [Carcinogen]: 100 MG/KG BW 1/WK FOR 8 WK BEGINNING AT 6 WK OF AGE, Promoter: NONE USED); 12/20 (60%), 13/20 (65%), -8%, not significant (Carcinogen: 2-AMINO-1-METHYL-6-PHENYL-1H-IMIDAZO[4,5-B]PYRID INE, 105650-23-5, Dose [Inhibitor]: 0, 0.2% IN THE DIET FOR 8 WK BEGINNING 3 D POST LAST CARCINOGEN DOSE (STUDY DURATION: 48 WK), Target Tissue: Type of Lesion: MAMMARY GLAND: ADENOCARCINOMA, Dose [Carcinogen]: 100 MG/KG BW 1/WK FOR 8 WK CONCURRENT WITH INHIBITOR, Promoter: NONE USED). Further, the “tumour outcome (control, treated, inhibition, significance)” value runs as follows: (Carcinogen: 2-AMINO-1-METHYL-6-PHENYL-1H-IMIDAZO[4,5-B]PYRID INE, 105650-23-5, Dose [Inhibitor]: 0, 0.2% IN THE DIET FOR 8 WK BEGINNING 3 D PRIOR TO FIRST CARCINOGEN DOSE (STUDY DURATION: 48 WK), Target Tissue: Type of Lesion: MAMMARY GLAND: FIBROADENOMA, Dose [Carcinogen]: 100 MG/KG BW 1/WK FOR 8 WK CONCURRENT WITH INHIBITOR, Promoter: NONE USED) 2/20 (10%), 4/20 (20%), -100%, not significant; (Carcinogen: 2-AMINO-1-METHYL-6-PHENYL-1H-IMIDAZO[4,5-B]PYRID INE, Dose [Inhibitor]: 0, 0.2% IN THE DIET FOR 8 WK BEGINNING 3 D POST LAST CARCINOGEN DOSE (STUDY DURATION: 48 WK), Target Tissue: Type of Lesion: MAMMARY GLAND: FIBROADENOMA, Dose [Carcinogen]: 100 MG/KG BW 1/WK FOR 8 WK BEGINNING AT 6 WK OF AGE, Promoter: NONE USED) 2/20 (10%), 2/20 (10%), 0%, not significant; (Carcinogen: 2-AMINO-1-METHYL-6-PHENYLIMIDAZO[4,5-B]PYRIDINE [105650-23-5], Dose [Inhibitor]: 0.02% IN DIET FOR 8 WK BEGINNING 3 D PRIOR TO FIRST CARCINOGEN DOSE (STUDY DURATION: 48 WK), Target Tissue: Type of Lesion: MAMMARY GLAND: CARCINOMA, Dose [Carcinogen]: 100 MG/KG BW 1X/WK FOR 8 WK (STUDY DURATION: 48 WK), Promoter: NONE) 12/20 (60%), 11/20 (55%), 8%, not significant; (Carcinogen: 2-AMINO-1-METHYL-6-PHENYLIMIDAZO[4,5-B]PYRIDINE [105650-23-5], Dose [Inhibitor]: 0.02% IN DIET FOR 8 WK BEGINNING 3 D PRIOR TO FIRST CARCINOGEN DOSE (STUDY DURATION: 48 WK), Target Tissue: Type of Lesion: MAMMARY GLAND: FIBROADENOMA, Dose [Carcinogen]: 100 MG/KG BW 1X/WK FOR 8 WK (STUDY DURATION: 48 WK), Promoter: NONE) 2/20 (10%), 3/20 (15%), -50%, not significant; (Carcinogen: 2-AMINO-1-METHYL-6-PHENYLIMIDAZO[4,5-B]PYRIDINE [105650-23-5], Dose [Inhibitor]: 0.02% IN DIET FOR 40 WK BEGINNING 3 D POST LAST CARCINOGEN DOSE (STUDY DURATION: 48 WK), Target Tissue: Type of Lesion: MAMMARY GLAND: CARCINOMA, Dose [Carcinogen]: 100 MG/KG BW 1X/WK FOR 8 WK (STUDY DURATION: 48 WK), Promoter: NONE) 12/20 (60%), 10/19 (53%), 12%, not significant; (Carcinogen: 2-AMINO-1-METHYL-6-PHENYLIMIDAZO[4,5-B]PYRIDINE [105650-23-5], Dose [Inhibitor]: 0.02% IN DIET FOR 40 WK BEGINNING 3 D POST LAST CARCINOGEN DOSE (STUDY DURATION: 48 WK), Target Tissue: Type of Lesion: MAMMARY GLAND: FIBROADENOMA, Dose [Carcinogen]: 100 MG/KG BW 1X FOR 8 WK (STUDY DURATION: 48 WK), Promoter: NONE) 2/20 (10%), 2/19 (11%), -10%, not significant. Also, the “tumour outcome (control, treated, inhibition, significance)” value (Carcinogen: 2-AMINO-1-METHYL-6-PHENYLIMIDAZO[4,5-B]PYRIDINE [105650-23-5], Dose [Inhibitor]: 0.2% IN DIET FOR 8 WK BEGINNING 3 D PRIOR TO FIRST CARCINOGEN DOSE (STUDY DURATION: 48 WK), Target Tissue: Type of Lesion: MAMMARY GLAND: CARCINOMA, Dose [Carcinogen]: 100 MG/KG BW 1X/WK FOR 8 WK (STUDY DURATION: 48 WK), Promoter: NONE) is 12/20 (60%), 13/20 (65%), -8%, not significant; the “tumour outcome (control, treated, inhibition, significance)” value (Carcinogen: 2-AMINO-1-METHYL-6-PHENYLIMIDAZO[4,5-B]PYRIDINE [105650-23-5], Dose [Inhibitor]: 0.2% IN DIET FOR 8 WK BEGINNING 3 D PRIOR TO FIRST CARCINOGEN DOSE (STUDY DURATION: 48 WK), Target Tissue: Type of Lesion: MAMMARY GLAND: FIBROADENOMA, Dose [Carcinogen]: 100 MG/KG BW 1X/WK FOR 8 WK (STUDY DURATION: 48 WK), Promoter: NONE) is given as 2/20 (10%), 4/20 (20%), -100%, not significant; the “tumour outcome (control, treated, inhibition, significance)” value (Carcinogen: 2-AMINO-1-METHYL-6-PHENYLIMIDAZO[4,5-B]PYRIDINE [105650-23-5], Dose [Inhibitor]: 0.2% IN DIET FOR 40 WK BEGINNING 3 D POST LAST CARCINOGEN DOSE (STUDY DURATION: 48 WK), Target Tissue: Type of Lesion: MAMMARY GLAND: CARCINOMA, Dose [Carcinogen]: 100 MG/KG BW 1X FOR 8 WK (STUDY DURATION: 48 WK), Promoter: NONE) is given as 12/20 (60%), 11/20 (55%), 8%, not significant; the “tumour outcome (control, treated, inhibition, significance)” value (Carcinogen: 2-AMINO-1-METHYL-6-PHENYLIMIDAZO[4,5-B]PYRIDINE [105650-23-5], Dose [Inhibitor]: 0.2% IN DIET FOR 40 WK BEGINNING 3 D POST LAST CARCINOGEN DOSE (STUDY DURATION: 48 WK), Target Tissue: Type of Lesion: MAMMARY GLAND: FIBROADENOMA, Dose [Carcinogen]: 100 MG/KG BW 1X FOR 8 WK (STUDY DURATION: 48 WK), Promoter: NONE) is given as 2/20 (10%), 2/20 (10%), 0%, not significant.
